Legend:
Assay type in all cases: physicochemical
[1] = Contact angle by sessile drop method (water); details: ambient conditions, trihydrate
Procedure: Contact angles of amoxicillin trihydrate powder samples were measured by the sessile drop method using an Drop Shape Analyzer instrument (FTA 1000, First Ten Angstrom, Virginia, USA). Powder samples were mounted on double sided adhesive tape adhered to a glass slide and excess powder was removed by tapping the slide. A drop of probe liquid (water) was dispersed onto the sample surface and video images were captured by the FTA image analyzer. The contact angle was calculated by the instrument by fitting a mathematical expression to the shape of the drop followed by calculating the slope of the tangent to the drop at the liquid-solid-vapor interface line. The surface tension of ultrapure ELGA laboratory water was measured to be 73±0.5 mN·m^−1 at 25° C. All measurements were performed in air under ambient conditions and an average of four measurements was reported in the below Examples.
(§1) Parameters operated were: • Augar Speed: 5-90 rpm • Primary Air Pressure: 2-8 kg·cm^−2 • Secondary Air Pressure: 4-10 kg·cm^−2 The surface area (in triplicate), average particle size and contact angle (in quadruplicate) were determined as outlined in the General section. The purity of the amoxicillin trihydrate samples was 99.4±0.3% and were void of dichloromethane, isopropanol, pivalic acid and triethyl amine.

[2] = Specific powder surface area by nitrogen gas sorption (BET); details: triplicate, trihydrate
Procedure: Specific powder surface area was determined using nitrogen gas sorption (Smartsorb, Smart Instruments, Mumbai, India). Prior to measurements, samples were regenerated by degassing to remove moisture and contamination. The regenerated sample was dipped in liquid nitrogen and the quantity of the adsorbed gas was measured using a thermal conductivity detector and subsequently integrated using an electronic circuit in terms of counts. The instrument was calibrated by injecting a known quantity of nitrogen. The measured parameters were subsequently used to calculate the surface area of the sample by employing the adsorption theories of Brunauer, Emmett and Teller (BET).
as §1

[3] = Powder dissolution, USP/NF paddle method with HPLC analysis; details: 500 mg in 900 mL water, 37 °C, 75 rpm; for Amoxicillin released in solution Mean: mean of 3; for Amoxicillin released in solution #1: replicate #1; for Amoxicillin released in solution #2: replicate #2; for Amoxicillin released in solution #3: replicate #3
Procedure: Dissolution analysis of amoxicillin trihydrate powder samples was carried out using the USP/NF paddle method at a rotational speed of 75 rpm. Ultrapure ELGA laboratory water (900 mL) was used as dissolution medium. Media were equilibrated to 37.0±0.5° C. prior to dissolution. Amoxicillin trihydrate sample powder (500 mg) was directly added to the dissolution apparatus (Electrolab USP-24, India). Samples were collected at 0, 1, 3, 5, 10, 15, 30, 60 and 90 min, filtered through 0.2 μm filters and analyzed by HPLC. Dissolution profiles were constructed by plotting the percentage amoxicillin released against time.
The HPLC system (Shimadzu Corporation, Kyoto, Japan) comprised of an SCL-10A VP system controller, LC-10AT VP liquid chromatograph, FCV-10AL VP flow control valve, DGU-14A degasser, SIL-10AD VP auto-injector, CTO-10AS VP column oven, SPD-M20A prominence diode array (PDA) detector and data acquisition Class-VP 6.10 software. The HPLC method was adopted from the United States Pharmacopoeia (USP). The method was validated for linearity, precision, accuracy and intra- and inter-day variability. The mobile phase was 50 mM monobasic potassium phosphate:methanol (96:4, v/v, pH 5.0). All analyses were carried out using Lichrospher® 100 RP-18e analytical column (5 μm, Merck KGaA, Darmstadt, Germany) under isocratic conditions at a flow rate of 1.0 mL·min^−1 at 25° C. with 20 μL injection volume. Effluent was monitored at a wavelength of 230 nm. Samples for calibration curve generation were prepared in 50 mM monobasic potassium phosphate:methanol 1:1 (v/v) proportion at a concentration range of 1 to 600 μg·mL^−1.
The three non-micronized (i.e. entries 1-3 of Table 1) and micronized (i.e. entries 4-6 of Table 1) amoxicillin trihydrate samples of Example 1 were subjected to a powder dissolution test (in triplicate) as outlined in the General section.

[4] = Particle size distribution by laser diffraction (Malvern); details: trihydrate
Procedure: Particle size distribution values D10, D50, D90 and D100 were determined using laser diffraction applying Malvern equipment. A suitable apparatus for determining D10, D50, D90 and D100 is a Malvern particle sizer 2600 C or a Malvern Zeta Sizer.
as §1

With `CC1(C)S[C@@H]2[C@H](NC(=O)[C@H](N)c3ccc(O)cc3)C(=O)N2[C@H]1C(=O)O.O.O.O` [entry 5, amoxicillin trihydrate] the “Contact Angle Mean ± SD (n = 4)” value [1] was 97.89 ± 1.22, the “Surface Area Mean ± SD (n = 3)” value [2] was 2.03 ± 0.15 m^2 · g^−1 and the “Amoxicillin released in solution Mean” value ([3]; 0 min) was 0%. The “Amoxicillin released in solution #1” value ([3]; 0 min) was 0%, the “Amoxicillin released in solution #2” value ([3]; 0 min) was 0% and the “Amoxicillin released in solution #3” value ([3]; 0 min) was 0%. For the same compound, the “Amoxicillin released in solution Mean” value ([3]; 1 min, trihydrate) was 59.93%, the “Amoxicillin released in solution #1” value ([3]; 1 min, trihydrate) was 58.56% and the “Amoxicillin released in solution #2” value ([3]; 1 min, trihydrate) was 62.91%. The “Amoxicillin released in solution #3” value ([3]; 1 min, trihydrate) was 58.32%, the “Amoxicillin released in solution Mean” value ([3]; 3 min, trihydrate) was 77.98% and the “Amoxicillin released in solution #1” value ([3]; 3 min, trihydrate) was 78.61%. For the same compound, the “Amoxicillin released in solution #2” value ([3]; 3 min, trihydrate) was 80.12%, the “Amoxicillin released in solution #3” value ([3]; 3 min, trihydrate) was 75.20% and the “Amoxicillin released in solution Mean” value ([3]; 5 min, trihydrate) was 82.14%. The “Amoxicillin released in solution #1” value ([3]; 5 min, trihydrate) was 83.91%, the “Amoxicillin released in solution #2” value ([3]; 5 min, trihydrate) was 82.77% and the “Amoxicillin released in solution #3” value ([3]; 5 min, trihydrate) was 79.73%. The “Amoxicillin released in solution Mean” value ([3]; 10 min, trihydrate) was 86.84%, the “Amoxicillin released in solution #1” value ([3]; 10 min, trihydrate) was 89.18% and the “Amoxicillin released in solution #2” value ([3]; 10 min, trihydrate) was 88.59%. For the same compound, the “Amoxicillin released in solution #3” value ([3]; 10 min, trihydrate) was 82.76%, the “Amoxicillin released in solution Mean” value ([3]; 15 min, trihydrate) was 89.32% and the “Amoxicillin released in solution #1” value ([3]; 15 min, trihydrate) was 90.98%. The “Amoxicillin released in solution #2” value ([3]; 15 min, trihydrate) was 92.05%, the “Amoxicillin released in solution #3” value ([3]; 15 min, trihydrate) was 84.94% and the “Amoxicillin released in solution Mean” value ([3]; 30 min, trihydrate) was 96.72%. The “Amoxicillin released in solution #1” value ([3]; 30 min, trihydrate) was 94.78%, the “Amoxicillin released in solution #2” value ([3]; 30 min, trihydrate) was 99.20% and the “Amoxicillin released in solution #3” value ([3]; 30 min, trihydrate) was 96.17%. For the same compound, the “Amoxicillin released in solution Mean” value ([3]; 60 min, trihydrate) was 97.60%, the “Amoxicillin released in solution #1” value ([3]; 60 min, trihydrate) was 97.29% and the “Amoxicillin released in solution #2” value ([3]; 60 min, trihydrate) was 99.86%. For the same compound, the “Amoxicillin released in solution #3” value ([3]; 60 min, trihydrate) was 95.65%, the “Amoxicillin released in solution Mean” value ([3]; 90 min, trihydrate) was 99.15% and the “Amoxicillin released in solution #1” value ([3]; 90 min, trihydrate) was 99.33%. The “Amoxicillin released in solution #2” value ([3]; 90 min, trihydrate) was 99.64%, the “Amoxicillin released in solution #3” value ([3]; 90 min, trihydrate) was 98.47% and the “Average Particle Size D10” value [4] was 1.9 μm. The “Average Particle Size D50” value [4] was 10.0 μm, the “Average Particle Size D90” value [4] was 22.5 μm and the “Average Particle Size D100” value [4] was 44.3 μm.

In the case of `CC1(C)S[C@@H]2[C@H](NC(=O)[C@H](N)c3ccc(O)cc3)C(=O)N2[C@H]1C(=O)O.O.O.O` [entry 6, amoxicillin trihydrate], the “Contact Angle Mean ± SD (n = 4)” value [1] is reported as 107.84 ± 1.72, the “Surface Area Mean ± SD (n = 3)” value [2] is reported as 1.69 ± 0.07 m^2 · g^−1 and the “Amoxicillin released in solution Mean” value ([3]; 0 min) is reported as 0%. The “Amoxicillin released in solution #1” value ([3]; 0 min) was 0%, the “Amoxicillin released in solution #2” value ([3]; 0 min) was 0% and the “Amoxicillin released in solution #3” value ([3]; 0 min) was 0%. For the same compound, the “Amoxicillin released in solution Mean” value ([3]; 1 min, trihydrate) was 70.68%, the “Amoxicillin released in solution #1” value ([3]; 1 min, trihydrate) was 70.98% and the “Amoxicillin released in solution #2” value ([3]; 1 min, trihydrate) was 72.37%. For the same compound, the “Amoxicillin released in solution #3” value ([3]; 1 min, trihydrate) was 68.67%, the “Amoxicillin released in solution Mean” value ([3]; 3 min, trihydrate) was 79.56% and the “Amoxicillin released in solution #1” value ([3]; 3 min, trihydrate) was 82.73%. The “Amoxicillin released in solution #2” value ([3]; 3 min, trihydrate) was 76.25%, the “Amoxicillin released in solution #3” value ([3]; 3 min, trihydrate) was 79.68% and the “Amoxicillin released in solution Mean” value ([3]; 5 min, trihydrate) was 82.60%. The “Amoxicillin released in solution #1” value ([3]; 5 min, trihydrate) was 84.40%, the “Amoxicillin released in solution #2” value ([3]; 5 min, trihydrate) was 78.46% and the “Amoxicillin released in solution #3” value ([3]; 5 min, trihydrate) was 84.94%. The “Amoxicillin released in solution Mean” value ([3]; 10 min, trihydrate) was 85.67%, the “Amoxicillin released in solution #1” value ([3]; 10 min, trihydrate) was 85.63% and the “Amoxicillin released in solution #2” value ([3]; 10 min, trihydrate) was 82.85%. For the same compound, the “Amoxicillin released in solution #3” value ([3]; 10 min, trihydrate) was 88.53%, the “Amoxicillin released in solution Mean” value ([3]; 15 min, trihydrate) was 88.11% and the “Amoxicillin released in solution #1” value ([3]; 15 min, trihydrate) was 87.94%. The “Amoxicillin released in solution #2” value ([3]; 15 min, trihydrate) was 85.45%, the “Amoxicillin released in solution #3” value ([3]; 15 min, trihydrate) was 90.95% and the “Amoxicillin released in solution Mean” value ([3]; 30 min, trihydrate) was 96.85%. For the same compound, the “Amoxicillin released in solution #1” value ([3]; 30 min, trihydrate) was 96.08%, the “Amoxicillin released in solution #2” value ([3]; 30 min, trihydrate) was 96.66% and the “Amoxicillin released in solution #3” value ([3]; 30 min, trihydrate) was 97.81%. The “Amoxicillin released in solution Mean” value ([3]; 60 min, trihydrate) was 99.37%, the “Amoxicillin released in solution #1” value ([3]; 60 min, trihydrate) was 99.56% and the “Amoxicillin released in solution #2” value ([3]; 60 min, trihydrate) was 98.85%. For the same compound, the “Amoxicillin released in solution #3” value ([3]; 60 min, trihydrate) was 99.69%, the “Amoxicillin released in solution Mean” value ([3]; 90 min, trihydrate) was 98.76% and the “Amoxicillin released in solution #1” value ([3]; 90 min, trihydrate) was 97.01%. For the same compound, the “Amoxicillin released in solution #2” value ([3]; 90 min, trihydrate) was 99.48%, the “Amoxicillin released in solution #3” value ([3]; 90 min, trihydrate) was 99.78% and the “Average Particle Size D10” value [4] was 1.9 μm. The “Average Particle Size D50” value [4] was 10.0 μm, the “Average Particle Size D90” value [4] was 22.4 μm and the “Average Particle Size D100” value [4] was 38.9 μm.

Source: US9820943B2, “Micronized amoxicillin” (DSM SINOCHEM PHARMACEUTICALS NETHERLANDS B.V., priority 2013, dated 2017)
